Experiments:
HCT116 cells = test: Cytotoxicity (cell viability) of niclosamide; assay type: cell-based; conditions: Homo sapiens, HCT-116, 24 h, 95% CI 1.87 to 2.92 μM
Experimental: To determine an applicable niclosamide concentration, the cytotoxicity of niclosamide on HCT116 cells was analyzed. […] No change in S100A4 expression could be detected with concentrations below 1 μM niclosamide.
All calculations and statistical analyses were performed with GraphPad Prism version 4.01. Student t test was used for comparison of only two groups. One-way analysis of variance (ANOVA) was applied for comparing the control group with several treated groups followed by Bonferroni post hoc multiple comparisons. […] Kaplan-Meier analysis was used to plot overall survival and differences in curves were analyzed by Logrank test. […]
(A) Determination of the cytotoxicity of niclosamide on HCT116 cells. Cells were treated with increasing concentrations of niclosamide for 24 hours and cell viability was measured. […] S100A4 expression was determined by quantitative reverse-transcription-polymerase chain reaction (qRT-PCR) and immunoblot. […] HCT116 cells were treated with a single dose of 1 μM niclosamide for 24 hours and S100A4 expression was analyzed by qRT-PCR and immunoblot at indicated time points. […] HCT116 cells were treated daily with 1 μM niclosamide and S100A4 expression was analyzed by qRT-PCR and immunoblot. […]

S100A4 mRNA = S100A4 mRNA in spleen tumor of xenograft mice (qRT-PCR); assay type: in vivo; conditions: for S100A4 mRNA level in spleen tumor, mean % of control mice / S100A4 mRNA level in spleen tumor, mean difference control vs niclosamide: day 24
Experimental: All experiments were performed in accordance with the UKCCCR guidelines and approved by the responsible local authorities (State Office of Health and Social Affairs, Berlin, Germany). HCT116-CMVp-LUC cells (3×10^6 cells per mouse, resuspended in 50 μL PBS) were intrasplenically transplanted into 6-week-old female nonobese diabetic-severe combined immunodeficiency (NOD-SCID) mice. Mice were randomly assigned to 3 groups and reatment of mice started 24 hours after cell transplantation. Mice of the control group (n=9) were treated with daily doses of solvent. Mice of the second group (n=9) were daily treated intraperitoneally with 20 mg per kg niclosamide. Mice of the third group (n=9) were treated intraperitoneally with two doses of 15 mg per kg niclosamide per day. The experimental endpoint was reached when mice appeared moribund and/or the spleen tumor was palpable. This was the case with the majority of control mice on day 24. For long-term in vivo experiments mice randomly assigned to 3 groups. Mice of the control group (n=6) were treated intraperitoneally with daily doses of solvent. Mice of the second group (n=6) were daily treated intraperitoneally with 20 mg per kg niclosamide. Mice of the third group (n=6) were daily treated intraperitoneally for 24 days with 20 mg per kg niclosamide and for the residual days with solvent. Mice were killed by cervical dislocation when tumor reached the maximum in accordance with the local authorities.
Spleen (as the transplantation site) and liver (as a metastasis target organ) were removed. The amount of S100A4 mRNA in the tumor was determined by Trizol RNA isolation of tumor cryosections and quantitative real-time RT-PCR. The level of metastasis was evaluated by scoring. For each liver, a score was calculated as the sum of the volumes of the individual metastases. For each metastasis the formula [width2]×length was applied.
(A) In vivo luminescence imaging of metastasis under niclosamide treatment. HCT116-CMVp-LUC cells stably expressing firefly luciferase (LUC) were intrasplenically transplanted into mice (per group n=4) followed by daily intraperitoneal treatment with 20 mg per kg niclosamide. For luminescence imaging, mice were anesthetized at the indicated days and received intraperitoneally D-luciferin. Exposure time for lateral and ventral imaging was 20 seconds per picture. In situ imaging and imaging of isolated organs was performed for 1 second per picture exposure time. Signal intensity of grayscale images (256 scale) were color coded (from low to high signal intensity: blue, green, yellow, red, white) and overlayed with bright field picture. (B) S100A4 mRNA level in spleen tumor of niclosamide-treated xenograft mice. Spleens from mice (per group n=9) were dissected on day 24. Tumor tissue was cryosected for RNA isolation. S100A4 mRNA level was measured by qRT-PCR and expressed as percentage of control mice. Differences were analyzed by two-sided one-way analysis of variance and Bonferroni post hoc multiple comparison test. Bars represent mean±SD. (C) Liver metastases size in niclosamide-treated xenograft mice. Liver was dissected from xenograft mice (per group n=9) intraperitoneally treated twice per day with 15 mg per kg or daily with 20 mg per kg niclosamide for 24 days. Metastasis was quantified by scoring. Data is given as mean±SD.
(A) S100A4 expression in vitro after discontinued niclosamide treatment. HCT116 cells were treated daily with 1 μM niclosamide for three consecutive days, medium was removed on day 4, and S100A4 expression was analyzed 24, 48, and 72 hours after niclosamide removal. S100A4 expression was analyzed by qRT-PCR and immunoblot. (B) Cell migration after discontinued niclosamide treatment. Cell migration rates of HCT116 cells treated as in (A) were determined by Boyden chamber assay. Differences in control vs. treated cells were analyzed by Student's t test. (C) Anchorage-dependent cell proliferation after discontinued niclosamide treatment. […]

[1] = 20 mg per kg daily intraperitoneally
[2] = 2×15 mg per kg per day intraperitoneally

With `O=C(Nc1ccc([N+](=O)[O-])cc1Cl)c1cc(Cl)ccc1O` [niclosamide, 2′,5-dichloro-4′-nitrosalicylanilide] the EC50 (HCT116 cells) was 2200 nM, the “S100A4 mRNA level in spleen tumor, mean % of control mice” value (S100A4 mRNA; [1]) was 67.2% and the “S100A4 mRNA level in spleen tumor, mean difference control vs niclosamide” value (S100A4 mRNA; [1]) was 32.9%. The “S100A4 mRNA level in spleen tumor, mean % of control mice” value (S100A4 mRNA; [2]) was 58.4%, the “S100A4 mRNA level in spleen tumor, mean difference control vs niclosamide” value (S100A4 mRNA; [2]) was 41.7% and the “S100A4 mRNA level in spleen tumor, mean difference control vs treatment” value (S100A4 mRNA; continuous treatment) was 27%. The “S100A4 mRNA level in spleen tumor, mean % of control animals” value (S100A4 mRNA; continuous treatment (20 mg per kg i.p. daily)) was 73%, the “S100A4 mRNA level in spleen tumor, mean difference control vs treatment” value (S100A4 mRNA; discontinuous treatment) was 40.0% and the “S100A4 mRNA level in spleen tumor, mean % of control animals” value (S100A4 mRNA; discontinuous treatment (20 mg per kg i.p. for 24 days, then solvent)) was 60%.

Source: patent publication US11331290B2, “Niclosamide for the treatment of cancer metastasis” (Max-Delbrück-Centrum für Molekulare Medizin in der …, priority 2011, dated 2022)
